Where “and” joins values, the source holds several entries; their conditions need not be identical. Identical values can stand only once. Inconclusive results and toxic doses are left out.

For this test, the system named is CD2F1 mice, L1210 leukemia ip, survival T/C. The test is described as follows: NCI In Vivo Anticancer Drug Screen. Data for tumor model L1210 Leukemia (intraperitoneal) in CD2F1 (CDF1) mice. To be noted: higher = longer survival. The essentials: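 Ratio T/C, where T is the treated-group value and C the vehicle-dosed control value, from mice implanted with a transplantable tumor.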

Setting [1] is: endpoint: mean survival time, dose: 100.0 mg/kg/injection, schedule: Q01DX009 (ip), vehicle: saline with Tween-80.
[2] abbreviates: endpoint: mean survival time, dose: 200.0 mg/kg/injection, schedule: Q01DX009 (ip), vehicle: saline with Tween-80.
Where [3] appears, read: endpoint: mean survival time, dose: 400.0 mg/kg/injection, schedule: Q01DX009 (ip), vehicle: saline with Tween-80.
The mark [4] stands for this setting: endpoint: mean survival time, dose: 100.0 mg/kg/injection, schedule: Q01DX009 (ip), vehicle: other.
The mark [5] stands for this setting: endpoint: mean survival time, dose: 50.0 mg/kg/injection, schedule: Q01DX009 (ip), vehicle: saline with Tween-80.
[6] abbreviates: endpoint: mean survival time, dose: 100.0 mg/kg/injection, schedule: Q04DX003 (ip), vehicle: saline with Tween-80.
Where [7] appears, read: endpoint: mean survival time, dose: 200.0 mg/kg/injection, schedule: Q04DX003 (ip), vehicle: saline with Tween-80.
[8] abbreviates: endpoint: mean survival time, dose: 100.0 mg/kg/injection, schedule: Q01DX001 (ip), vehicle: saline.
Setting [9] is: endpoint: mean survival time, dose: 200.0 mg/kg/injection, schedule: Q01DX001 (ip), vehicle: saline.
Where [10] appears, read: endpoint: mean survival time, dose: 400.0 mg/kg/injection, schedule: Q01DX001 (ip), vehicle: saline.
Setting [11] is: endpoint: mean survival time, dose: 400.0 mg/kg/injection, schedule: Q04DX003 (ip), vehicle: saline with Tween-80.

For `CC(=O)Nc1nc2nccn2c(=O)[nH]1`, the T/C is 101 % of control (endpoint: median survival time, dose: 50.0 mg/kg/injection, schedule: Q01DX005 (ip), vehicle: saline); 100 % of control (endpoint: median survival time, dose: 100.0 mg/kg/injection, schedule: Q01DX005 (ip), vehicle: saline); 101 % of control (endpoint: median survival time, dose: 200.0 mg/kg/injection, schedule: Q01DX005 (ip), vehicle: saline).
With `COc1ccc(NC(=O)CC(C)=O)cc1`, the T/C is 97 % of control under setting [1], 103 % of control under setting [2] and 100 % of control under setting [3].
Consider `CC1(C)CC2(OC2c2ccccc2)C(C)(O)c2ccccc21` (stereo not given), for which the T/C under setting [4] is 105 % of control; the T/C (endpoint: mean survival time, dose: 200.0 mg/kg/injection, schedule: Q01DX009 (ip), vehicle: other) was 113 % of control; the T/C (endpoint: mean survival time, dose: 400.0 mg/kg/injection, schedule: Q01DX009 (ip), vehicle: other) was 104 % of control.
Consider `CC(C)CC(NC(=O)CF)C(=O)O` (stereo not given), for which the T/C is 98 % of control and 108 % of control (endpoint: mean survival time, dose: 0.31 mg/kg/injection, schedule: Q01DX009 (ip), vehicle: saline); 98 % of control (endpoint: mean survival time, dose: 0.62 mg/kg/injection, schedule: Q01DX009 (ip), vehicle: saline); 111 % of control (endpoint: mean survival time, dose: 0.63 mg/kg/injection, schedule: Q01DX009 (ip), vehicle: saline); 98 % of control and 106 % of control (endpoint: mean survival time, dose: 1.25 mg/kg/injection, schedule: Q01DX009 (ip), vehicle: saline); 98 % of control and 100 % of control (endpoint: mean survival time, dose: 2.5 mg/kg/injection, schedule: Q01DX009 (ip), vehicle: saline); 98 % of control and 110 % of control (endpoint: mean survival time, dose: 5.0 mg/kg/injection, schedule: Q01DX009 (ip), vehicle: saline).
As to `O=C(NCCCl)NC1CCSc2ccccc21` (stereo not given), the T/C by setting is: under setting [5], 95 % of control; under setting [1], 91 % of control; under setting [2], 91 % of control.
As for `CC(C)CNC(=O)c1ccc(N=NN(C)Cc2ccncc2)cc1`, the T/C runs as follows: under setting [5], 104 % of control; under setting [1], 122 % of control; under setting [6], 105 % of control; under setting [7], 117 % of control.
`CC(=O)NC1C(O)C(NC(C)=O)C(OC(C)=O)C(OC(C)=O)C1OC(C)=O` (stereo not given): the T/C is, setting by setting: under setting [1], 95 % of control; under setting [2], 103 % of control; under setting [3], 103 % of control.
On to `CCOC(=O)/C(=C/[N-]c1ccccc1[N-]/C=C(\C(C)=O)C(=O)OCC)C(C)=O.[Pt+2]`, for which the T/C is, setting by setting: (endpoint: median survival time, dose: 10.0 mg/kg/injection, schedule: Q04DX003 (ip), vehicle: saline with Tween-80) 98 % of control; (endpoint: median survival time, dose: 20.0 mg/kg/injection, schedule: Q04DX003 (ip), vehicle: saline with Tween-80) 96 % of control; (endpoint: median survival time, dose: 40.0 mg/kg/injection, schedule: Q04DX003 (ip), vehicle: saline with Tween-80) 89 % of control; (endpoint: median survival time, dose: 50.0 mg/kg/injection, schedule: Q04DX003 (ip), vehicle: saline with Tween-80) 96 % of control; (endpoint: median survival time, dose: 80.0 mg/kg/injection, schedule: Q04DX003 (ip), vehicle: saline with Tween-80) 101 % of control; (endpoint: median survival time, dose: 100.0 mg/kg/injection, schedule: Q04DX003 (ip), vehicle: saline with Tween-80) 97 % of control. In addition, where the note is “endpoint: median survival time, dose: 200.0 mg/kg/injection, schedule: Q04DX003 (ip), vehicle: saline with Tween-80”, the T/C was 101 % of control.
On to `[Cl][Pt+2][Cl].[NH-]C1CCCC1[NH-]` (stereo not given), for which the T/C was 166 % of control and 173 % of control (endpoint: median survival time, dose: 10.0 mg/kg/injection, schedule: Q04DX003 (ip), vehicle: Klucel (hydroxypropylcellulose) (HPC)); 196 % of control and 333 % of control (endpoint: median survival time, dose: 20.0 mg/kg/injection, schedule: Q04DX003 (ip), vehicle: Klucel (hydroxypropylcellulose) (HPC)).
Consider `CCCCCCCC1SC(=S)NC1=O` (stereo not given), for which the T/C (endpoint: mean survival time, dose: 12.5 mg/kg/injection, schedule: Q01DX009 (ip), vehicle: other) is 95 % of control; the T/C (endpoint: mean survival time, dose: 25.0 mg/kg/injection, schedule: Q01DX009 (ip), vehicle: other) is 89 % of control; the T/C (endpoint: mean survival time, dose: 50.0 mg/kg/injection, schedule: Q01DX009 (ip), vehicle: other) is 100 % of control; the T/C under setting [4] is 91 % of control.
For the molecule `COc1ccccc1OCC1CO1` (stereo not given), the T/C runs as follows: under setting [8], 101 % of control; under setting [9], 102 % of control; under setting [10], 102 % of control.
For the molecule `CC(C)(C)NC(=O)C1C2CCC(C2)C1C(=O)NC(C)(C)C` (stereo not given), the T/C runs as follows: under setting [6], 98 % of control; under setting [7], 102 % of control; under setting [11], 98 % of control.
Take `COC1OC(C(O)CO)C(O)C(O)C1O` (stereo not given): the T/C is 105 % of control under setting [8]; 104 % of control under setting [6]; 96 % of control under setting [9]; 103 % of control under setting [7]; 102 % of control under setting [10]; 98 % of control under setting [11].
For the molecule `CC1CCCC(C)N1CC(O)c1ccccc1` (stereo not given), the T/C by setting is: (endpoint: mean survival time, dose: 6.25 mg/kg/injection, schedule: Q01DX009 (ip), vehicle: saline with Tween-80) 98 % of control; (endpoint: mean survival time, dose: 12.5 mg/kg/injection, schedule: Q01DX009 (ip), vehicle: saline with Tween-80) 100 % of control; (endpoint: mean survival time, dose: 25.0 mg/kg/injection, schedule: Q01DX009 (ip), vehicle: saline with Tween-80) 102 % of control.
With `O=NN(CCCl)C(=O)NC1CSCSC1`, the T/C by setting is: (endpoint: mean survival time, dose: 6.0 mg/kg/injection, schedule: Q01DX001 (ip), vehicle: saline with Tween-80) 164 % of control; (endpoint: mean survival time, dose: 9.0 mg/kg/injection, schedule: Q01DX001 (ip), vehicle: saline with Tween-80) 297 % of control; (endpoint: mean survival time, dose: 13.0 mg/kg/injection, schedule: Q01DX001 (ip), vehicle: saline with Tween-80) 331 % of control; (endpoint: mean survival time, dose: 20.0 mg/kg/injection, schedule: Q01DX001 (ip), vehicle: saline with Tween-80) 352 % of control; (endpoint: mean survival time, dose: 30.0 mg/kg/injection, schedule: Q01DX001 (ip), vehicle: saline with Tween-80) 344 % of control.
`CC1CCN=C(CCC2CCCCC2=O)O1` (stereo not given): the T/C by setting is: under setting [6], 96 % of control; under setting [7], 101 % of control; under setting [11], 96 % of control.
As for `COC(=O)C(CCl)NC(N)=O` (stereo not given), the T/C was 104 % of control under setting [8], 101 % of control under setting [9] and 104 % of control under setting [10].
For `COc1cc(C)ccc1Cl`, the T/C by setting is: under setting [1], 101 % of control; under setting [2], 118 % of control.
Consider `CNC(=O)NNc1ccccc1`, for which the T/C reads like this: under setting [6], 102 % of control; under setting [7], 98 % of control; under setting [11], 104 % of control.
For the molecule `NC(=O)c1cn(C2OC(CO)CC2O)c2ncnc(N)c12` (stereo not given), the T/C by setting is: (endpoint: mean survival time, dose: 0.13 mg/kg/injection, schedule: Q01DX009 (ip), vehicle: water) 90 % of control; (endpoint: mean survival time, dose: 0.25 mg/kg/injection, schedule: Q01DX009 (ip), vehicle: water) 98 % of control; (endpoint: mean survival time, dose: 0.5 mg/kg/injection, schedule: Q01DX009 (ip), vehicle: water) 96 % of control; (endpoint: mean survival time, dose: 1.0 mg/kg/injection, schedule: Q01DX009 (ip), vehicle: water) 102 % of control; (endpoint: mean survival time, dose: 2.0 mg/kg/injection, schedule: Q01DX009 (ip), vehicle: water) 113 % of control; (endpoint: mean survival time, dose: 8.0 mg/kg/injection, schedule: Q01DX009 (ip), vehicle: water) 110 % of control. For the same molecule, the T/C (endpoint: mean survival time, dose: 32.0 mg/kg/injection, schedule: Q01DX009 (ip), vehicle: water) was 122 % of control.
Consider `COc1cc(C(=O)N2CC3CCC(CC3)C2)cc(OC)c1OC`, for which the T/C runs as follows: under setting [6], 93 % of control; under setting [7], 96 % of control; under setting [11], 96 % of control.
On to `Clc1ccc(C2(c3ccncc3)OCCO2)cc1`, for which the T/C runs as follows: (endpoint: mean survival time, dose: 100.0 mg/kg/injection, schedule: Q04DX003 (ip), vehicle: saline) 101 % of control; (endpoint: mean survival time, dose: 200.0 mg/kg/injection, schedule: Q04DX003 (ip), vehicle: saline) 101 % of control.
For the molecule `CCOc1ccccc1C1=CCCCCC1`, the T/C under setting [6] was 98 % of control, the T/C under setting [7] was 107 % of control and the T/C under setting [11] is 103 % of control.
As for `O=C(SC(=O)c1ccccc1)c1ccccc1`, the T/C is 97 % of control under setting [6], 100 % of control under setting [7] and 94 % of control under setting [11].
On to `Oc1cccc2c1NCCC2`, for which the T/C by setting is: (endpoint: mean survival time, dose: 25.0 mg/kg/injection, schedule: Q04DX003 (ip), vehicle: saline with Tween-80) 104 % of control; (endpoint: mean survival time, dose: 50.0 mg/kg/injection, schedule: Q04DX003 (ip), vehicle: saline with Tween-80) 98 % of control; under setting [6], 91 % of control and 102 % of control.
On to `O=C(CC([Se]c1ccccc1)c1ccccc1)c1ccccc1` (stereo not given), for which the T/C runs as follows: (endpoint: mean survival time, dose: 50.0 mg/kg/injection, schedule: Q01DX009 (ip), vehicle: saline sonified) 102 % of control; (endpoint: mean survival time, dose: 100.0 mg/kg/injection, schedule: Q01DX009 (ip), vehicle: saline sonified) 102 % of control; under setting [6], 105 % of control; (endpoint: mean survival time, dose: 200.0 mg/kg/injection, schedule: Q01DX009 (ip), vehicle: saline sonified) 105 % of control; under setting [7], 104 % of control.

These data come from PubChem BioAssay AID256 (DTP/NCI, 2004).
